Source: PubChem BioAssay (NCI)
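96-well plates; 48 h exposure; 5 concentrations. Endpoints by linear interpolation between flanking doses. Not reached: highest tested concentration assigned. TGI marks complete inhibition of growth.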

Legend:
Assay in all cases: NCI tumour cell line growth inhibition, 48 h
HCT-116 colon = test system: HCT-116 colon
LXFL 529 NSCLC = test system: LXFL 529 NSCLC
KM20L2 colon = test system: KM20L2 colon
SNB-19 CNS = test system: SNB-19 CNS
HOP-18 NSCLC = test system: HOP-18 NSCLC
RXF-631 renal = test system: RXF-631 renal
SNB-75 CNS = test system: SNB-75 CNS
EKVX NSCLC = test system: EKVX NSCLC
SF-295 CNS = test system: SF-295 CNS
UACC-62 melanoma = test system: UACC-62 melanoma
HOP-62 NSCLC = test system: HOP-62 NSCLC
OVCAR-4 ovarian = test system: OVCAR-4 ovarian
MALME-3M melanoma = test system: MALME-3M melanoma
SN12C renal = test system: SN12C renal
NCI-H460 lung = test system: NCI-H460 lung
KM12 colon = test system: KM12 colon
A549 NSCLC = test system: A549 NSCLC
CCRF-CEM leukemia = test system: CCRF-CEM leukemia
HL-60(TB) leukemia = test system: HL-60(TB) leukemia
RPMI-8226 leukemia = test system: RPMI-8226 leukemia
MOLT-4 leukemia = test system: MOLT-4 leukemia
OVCAR-8 ovarian = test system: OVCAR-8 ovarian
HCT-15 colon = test system: HCT-15 colon
COLO 205 colon = test system: COLO 205 colon
SF-268 CNS = test system: SF-268 CNS
M14 melanoma = test system: M14 melanoma
HOP-92 NSCLC = test system: HOP-92 NSCLC
XF 498 CNS = test system: XF 498 CNS
M19-MEL melanoma = test system: M19-MEL melanoma
ACHN renal = test system: ACHN renal
SW-620 colon = test system: SW-620 colon
SK-MEL-2 melanoma = test system: SK-MEL-2 melanoma
SF-539 CNS = test system: SF-539 CNS
UO-31 renal = test system: UO-31 renal
DMS 114 small cell lung = test system: DMS 114 small cell lung
TK-10 renal = test system: TK-10 renal
NCI-H226 lung = test system: NCI-H226 lung
SK-MEL-28 melanoma = test system: SK-MEL-28 melanoma
786-0 renal = test system: 786-0 renal
CAKI-1 renal = test system: CAKI-1 renal
OVCAR-3 ovarian = test system: OVCAR-3 ovarian
K-562 leukemia = test system: K-562 leukemia
HT29 colon = test system: HT29 colon
SR leukemia = test system: SR leukemia
U251 CNS = test system: U251 CNS
LOX IMVI melanoma = test system: LOX IMVI melanoma
NCI-H23 lung = test system: NCI-H23 lung
RXF 393 renal = test system: RXF 393 renal
SK-MEL-5 melanoma = test system: SK-MEL-5 melanoma
DLD-1 colon = test system: DLD-1 colon
A498 renal = test system: A498 renal
HCC-2998 colon = test system: HCC-2998 colon
NCI-H522 lung = test system: NCI-H522 lung
OVCAR-5 ovarian = test system: OVCAR-5 ovarian
IGROV1 ovarian = test system: IGROV1 ovarian
UACC-257 melanoma = test system: UACC-257 melanoma
SNB-78 CNS = test system: SNB-78 CNS
SK-OV-3 ovarian = test system: SK-OV-3 ovarian

CCCCOP1(=O)C=CC(Cl)=C(C)C1 (stereo not drawn)
TGI (HCT-116 colon): 46.9 µM
TGI (LXFL 529 NSCLC): 94.4 µM
TGI (KM20L2 colon): 49.5 µM
TGI (SNB-19 CNS): > 100 µM
TGI (HOP-18 NSCLC): > 100 µM
TGI (RXF-631 renal): > 100 µM
TGI (SNB-75 CNS): 49.6 µM
TGI (EKVX NSCLC): > 100 µM
TGI (SF-295 CNS): 39.6 µM
TGI (UACC-62 melanoma): 54.4 µM
TGI (HOP-62 NSCLC): > 100 µM
TGI (OVCAR-4 ovarian): 73.7 µM
TGI (MALME-3M melanoma): 47.5 µM
TGI (SN12C renal): 49.8 µM
TGI (NCI-H460 lung): 80.8 µM
TGI (KM12 colon): 46.6 µM
TGI (A549 NSCLC): > 100 µM
TGI (CCRF-CEM leukemia): 35 µM
TGI (HL-60(TB) leukemia): 39.6 µM
TGI (RPMI-8226 leukemia): 85.6 µM
TGI (MOLT-4 leukemia): 25.3 µM
TGI (OVCAR-8 ovarian): 51.3 µM
TGI (HCT-15 colon): 32.8 µM
TGI (COLO 205 colon): 97.7 µM
TGI (SF-268 CNS): 89.2 µM
TGI (M14 melanoma): > 100 µM
TGI (HOP-92 NSCLC): 54.5 µM
TGI (XF 498 CNS): 43.2 µM
TGI (M19-MEL melanoma): > 100 µM
TGI (ACHN renal): 36.3 µM
TGI (SW-620 colon): 42.7 µM
TGI (SK-MEL-2 melanoma): 50.8 µM
TGI (SF-539 CNS): 36.3 µM
TGI (UO-31 renal): > 100 µM
TGI (DMS 114 small cell lung): 71.7 µM
TGI (TK-10 renal): 75.1 µM
TGI (NCI-H226 lung): 41.9 µM
TGI (SK-MEL-28 melanoma): 31.7 µM
TGI (786-0 renal): 49.3 µM
TGI (CAKI-1 renal): > 100 µM
TGI (OVCAR-3 ovarian): 77.7 µM
TGI (K-562 leukemia): 50 µM
TGI (HT29 colon): 45 µM
TGI (SR leukemia): 39.4 µM

CN1C(=O)CC2(C)c3cc(C=O)ccc3N(C)C12 (stereo not drawn)
TGI (HCT-116 colon): > 100 µM
TGI (LXFL 529 NSCLC): > 100 µM
TGI (KM20L2 colon): > 100 µM
TGI (SNB-19 CNS): > 100 µM
TGI (U251 CNS): > 100 µM
TGI (HOP-18 NSCLC): > 100 µM
TGI (RXF-631 renal): > 100 µM
TGI (SNB-75 CNS): > 100 µM
TGI (LOX IMVI melanoma): > 100 µM
TGI (EKVX NSCLC): > 100 µM
TGI (SF-295 CNS): > 100 µM
TGI (NCI-H23 lung): > 100 µM
TGI (UACC-62 melanoma): > 100 µM
TGI (RXF 393 renal): > 100 µM
TGI (HOP-62 NSCLC): > 100 µM
TGI (OVCAR-4 ovarian): > 100 µM
TGI (MALME-3M melanoma): > 100 µM
TGI (SN12C renal): > 100 µM
TGI (NCI-H460 lung): > 100 µM
TGI (KM12 colon): > 100 µM
TGI (SK-MEL-5 melanoma): > 100 µM
TGI (A549 NSCLC): > 100 µM
TGI (CCRF-CEM leukemia): > 100 µM
TGI (MOLT-4 leukemia): > 100 µM
TGI (OVCAR-8 ovarian): > 100 µM
TGI (HCT-15 colon): > 100 µM
TGI (COLO 205 colon): > 100 µM
TGI (DLD-1 colon): > 100 µM
TGI (SF-268 CNS): > 100 µM
TGI (M14 melanoma): > 100 µM
TGI (HOP-92 NSCLC): > 100 µM
TGI (XF 498 CNS): > 100 µM
TGI (M19-MEL melanoma): > 100 µM
TGI (A498 renal): > 100 µM
TGI (ACHN renal): > 100 µM
TGI (SW-620 colon): > 100 µM
TGI (SK-MEL-2 melanoma): > 100 µM
TGI (HCC-2998 colon): > 100 µM
TGI (SF-539 CNS): > 100 µM
TGI (UO-31 renal): > 100 µM
TGI (DMS 114 small cell lung): > 100 µM
TGI (TK-10 renal): > 100 µM
TGI (NCI-H522 lung): > 100 µM
TGI (NCI-H226 lung): > 100 µM
TGI (SK-MEL-28 melanoma): > 100 µM
TGI (786-0 renal): > 100 µM
TGI (OVCAR-3 ovarian): > 100 µM
TGI (OVCAR-5 ovarian): > 100 µM
TGI (K-562 leukemia): > 100 µM
TGI (IGROV1 ovarian): > 100 µM
TGI (UACC-257 melanoma): > 100 µM
TGI (SNB-78 CNS): > 100 µM
TGI (HT29 colon): > 100 µM
TGI (SK-OV-3 ovarian): > 100 µM
